Earlier results in patent EP2839829B1 (Korea United Pharm. Inc., priority 2012, dated 2013).

Conditions: in the body

For `OC[C@@H](O)CN1CCN(c2ccccc2)CC1` [levodropropizine], the half life is listed as “about 1 hr”.
